Laboratory results published in publication PMC12096346, “Disposable Face Masks for Noninvasive Drug Detection: A Proof-of-Concept Study with Cough Syrup Constituents” (Analytical Chemistry, 2025).
Like-named read-outs stand apart in the source and are kept apart here.

What was measured:
clinical = conditions: both, human, in vivo, po
[1] = PubChem, cited from earlier work
[2] = Comparative urine analysis after ingesting cough syrup (LC-MS/MS, creatinine-normalized); type: in vivo, humans; conditions: 15 mL cough syrup oral; for k el / MRT / Tmax / half-life: human, in vivo; for MRT: reciprocal of kel; for Tmax: seven volunteers; for half-life: time from Cmax to half of Cmax
[3] = reported in the literature, ref numbers not given; cited from earlier work
[4] = Drug clearance study by breathing through face masks (exhaled breath, LC-MS/MS); conditions: for MRT / Tmax / half-life / k el: both, human, in vivo, po, 15 mL
[5] = both, human, in vivo, po
[6] = exhaled breath, 15 mL cough syrup oral

Structure (SMILES)	MRT (clinical)	Tmax (clinical)	k el (clinical)	pKa [1]	pKa ([1]; listed as Clp)	detection window [2]	k el [2]	MRT [2]	Tmax [2]	half-life [2]	plasma t1/2 [3]	MRT [4]	Tmax [4]	half-life [4]	k el [4]	detection window [4, 6]	Cmax in exhaled breath [4, 6]	detection window [5]	half-life (clinical)
CN(C)CCC(c1ccc(Cl)cc1)c1ccccn1 (stereo not shown) [Chlorpheniramine]	34.2 ± 4.6 h	13.1 ± 5 h	8.33e-06 s⁻¹	9.5^36	~9.5														
COc1ccc2c3c1O[C@H]1[C@@H](O)C=C[C@H]4[C@@H](C2)N(C)CC[C@@]341 [Codeine]						68.2 ± 8.3 h	8.33e-05 s⁻¹	4.6 ± 2.1 h	2.1 ± 1.3 h	3.3 ± 0.7 h	2 to 3 h	3.9 ± 0.8 h	1.9 ± 1 h	2.9 ± 0.8 h	8.33e-05 s⁻¹	61.3 ± 12.7 h			
CN[C@@H](C)[C@H](O)c1ccccc1 [Ephedrine]						79.9 ± 11.4 h	2.78e-05 s⁻¹	10.4 ± 3.3 h	2.7 ± 1.8 h	6.2 ± 0.6 h	approximately 6 h	14.5 ± 4.1 h	6.9 ± 1.1 h	10 ± 2.8 h	2.78e-05 s⁻¹	92.6 ± 9.1 h	10.8 ± 1.6 ng/m^3		
COc1ccccc1OCC(O)CO (stereo not shown) [Guaifenesin]	4.8 ± 4.2 h	0.9 ± 0.2 h	0.000111 s⁻¹								~1 h							65.1 ± 18.1 h	2.1 ± 0.9 h
